Assay results from US11603377B2, “MTORC1 modulators and uses thereof” (Aeovian Pharmaceuticals, Inc., priority 2020, dated 2023).

Key:
[1] = target: mTORC2 (Homo sapiens (Human), UniProt P42345+P62942); assay: mTORC2 inhibition, AlphaLISA of Phospho-AKT (pAKT pS473) in PC3 cells; format: cell-based
Description: Example 32: mTORC1 Inhibition, mTORC2 Inhibition, Cell Lysis, AlphaLISA Experiments, and Data Analysis
mTORC2 inhibition was determined via analysis of phosphorylation level of Phospho-AKT (pAKT pS473) with the corresponding AlphaLISA kit (PerkinElmer, Alpha SF Ultra™ Multiplex p-AKT1/2/3(Ser473)/Total AKT1). PC3 cells were plated on 96 well plates in assay medium (DMEM: Ham's F12, basic (CLS Cell Lines Service GmbH, Cat #820400a), supplemented with additional 10% FBS at 1.20E+06 cells/mL and incubated over-night at 37° C., 5% CO2. On the following day, cells were treated with assay medium (10% FBS) containing increasing compound concentrations (12 points at 3-fold dilutions) and incubated for 6 hours at 37° C., 5% CO2. Thereafter, medium was aspirated and cells were rinsed with PBS. In the following, cells were treated with compound dilutions in starvation medium (DMEM: Ham's F12, basic; without FBS) for further 18 h at 37° C., 5% CO2. Then, immediately prior to cell lysis, cells were treated with 12% FBS for 15 min.
After performing experiments according to mTORC1 and mTORC2 protocols, cells were harvested in lysis buffer supplied with the AlphaLISA kits, additionally enriched with Roche cOmplete™ Protease Inhibitor Cocktail (Cat #CO-RO). Thus, cells were lysed using 50 μL of the lysis buffer and incubated for 60 min at 4° C. while shaking. After centrifugation at 4000 rpm for 5 min, experiments were performed according to the AlphaLISA manufacturer's protocol.
Ten microliters of cell lysates were mixed with the acceptor mix. After incubation for 2 h at room temperature, the donor mix was added. After additional incubation at room temperature for 2 hours, AlphaLISA signal was read on PHERAstar® FSX (BMG Labtech) with AlphaPLEX module.
EC50 values were calculated by ExcelFit standard algorithm.

[2] = target: FKBP12 / FRB ternary complex (Homo sapiens (Human), UniProt P42345+P62942); assay: SPR assay to characterize ternary complex formation with FKBP12 (FRB binding to rapalog-saturated FKBP12); details: FRB dilutions with 100 nM rapalog on immobilized FKBP12
Description: Example 30: SPR Assay to Characterize Ternary Complex Formation with FKBP12
(§1) Biotinylated avi-FKBP12 was immobilized on a streptavidin chip (Cytiva Series S SA) using a Biacore 8K or 8 k+ (Cytiva). To achieve an immobilization level of 100 RU, 0.3 μg/ml biotinylated avi-FKBP12 were injected for 80 sec at a flow rate of 10 μl/min. Serial dilution of FRB was prepared (12 concentrations, 3-fold dilutions, 0.00011-20 μM) and supplemented with 100 nM of rapalog. A-B-A injection mode was used to ensure saturation immobilized FKBP12 with respective rapalog. 100 nM solution of the respective rapalog was injected before FRB injection for 120 sec and during dissociation for 420 sec. The FRB dilutions were then injected 120 seconds contact time with increasing concentrations. […] 50 mM HEPES pH 7.5, 150 mM NaCl, 2 mM MgCl2, 1 mM DTT, 0.05% Tween-20, 1% DMSO was used as running buffer at a flow rate of 30 μl/min. The multi-cycle kinetics data were fit to a 1:1 binding model to measure the association rate ka (1/Ms), the dissociation rate kd (1/s) and the affinity Kd (M). In case of fast association and dissociation, steady state affinity analysis following the law of mass action was used to determine the affinity Kd (M).

[3] = target: FKBP51 (Homo sapiens (Human), UniProt Q13451); assay: SPR assay to determine binding affinity to FKBP51 (direct binding); details: immobilized biotinylated avi-FKBP51
Sequence of FKBP51 (Q13451 whole entry): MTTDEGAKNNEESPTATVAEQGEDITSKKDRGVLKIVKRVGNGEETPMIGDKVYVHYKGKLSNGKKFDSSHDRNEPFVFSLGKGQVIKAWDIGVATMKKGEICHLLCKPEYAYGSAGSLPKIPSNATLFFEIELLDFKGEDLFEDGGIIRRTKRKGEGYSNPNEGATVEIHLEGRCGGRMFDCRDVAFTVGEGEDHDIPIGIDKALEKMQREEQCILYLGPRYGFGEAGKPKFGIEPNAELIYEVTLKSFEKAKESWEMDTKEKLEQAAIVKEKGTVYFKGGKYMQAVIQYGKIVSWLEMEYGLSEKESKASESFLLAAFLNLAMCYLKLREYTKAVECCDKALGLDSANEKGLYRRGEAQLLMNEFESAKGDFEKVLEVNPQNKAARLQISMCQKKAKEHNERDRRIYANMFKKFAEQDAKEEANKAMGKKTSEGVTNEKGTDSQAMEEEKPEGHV
Description: Example 29: SPR Assay to Determine Binding Affinity to FKBP51
Biotinylated avi-FKBP51 was immobilized on a streptavidin chip (Cytiva Series S SA) using a Biacore 8K or 8 k+ (Cytiva). To achieve an immobilization level of 2000 RU, 3 μg/ml biotinylated avi-FKBP51 were injected for 360 sec at a flow rate of 10 μl/min. Rapalogs were diluted in DMSO to 100× working concentration. Each Rapalog was 100-fold diluted in 50 mM HEPES pH 7.5, 150 mM NaCl, 2 mM MgCl2, 1 mM DTT, 0.05% Tween-20 and a serial dilution prepared (8 concentrations, 3-fold dilutions, 0.5-1000 nM). […] The compound dilutions were then injected at 100 uL/min for 120 seconds contact time and with 3600 seconds dissociation time with increasing concentrations. 50 mM HEPES pH 7.5, 150 mM NaCl, 2 mM MgCl2, 1 mM DTT, 0.05% Tween-20, 1% DMSO was used as running buffer. Multi-cycle kinetics data were fit to a 1:1 binding model to measure the association rate ka (1/Ms), the dissociation rate kd (1/s) and the affinity Kd (M).

[4] = target: FKBP51 / FRB ternary complex (Homo sapiens (Human), UniProt P42345+Q13451); assay: SPR assay to characterize ternary complex formation with FKBP51 (FRB binding to rapalog-saturated FKBP51); details: FRB dilutions with 100 nM rapalog on immobilized FKBP51
Description: Example 31: SPR Assay to Characterize Ternary Complex Formation with FKBP51
as §1, with “Biotinylated avi-FKBP51” for “Biotinylated avi-FKBP12”, “of 200” for “of 100”, “RU, 0.6” for “RU, 0.3”, “biotinylated avi-FKBP51” for “biotinylated avi-FKBP12”, “for 150” for “for 80”

[5] = target: mTORC1 (Homo sapiens (Human), UniProt P42345+P62942); assay: mTORC1 inhibition, AlphaLISA of Phospho-p70 S6 kinase (p70S6K pT389) in PC-3 cells; format: cell-based; details: inhibition of p70S6K pT389 levels
[6] = target: FKBP12 (Homo sapiens (Human), UniProt P62942); assay: SPR assay to determine binding affinity to FKBP12 (direct binding); details: immobilized biotinylated avi-FKBP12
Sequence of FKBP12 (P62942 whole entry): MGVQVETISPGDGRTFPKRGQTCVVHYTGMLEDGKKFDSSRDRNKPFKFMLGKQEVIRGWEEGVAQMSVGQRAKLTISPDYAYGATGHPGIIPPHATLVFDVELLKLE
Description: SPR Assay to Determine Binding Affinity to FKBP12.
Biotinylated avi-FKBP12 was immobilized on a streptavidin chip (Cytiva Series S SA) using a Biacore 8K or 8 k+ (Cytiva). To achieve an immobilization level of 1000 RU, 2 μg/ml biotinylated avi-FKBP12 were injected for 100 sec at a flow rate of 10 μl/min. Rapalogs were diluted in DMSO to 100× working concentration. Each Rapalog was 100-fold diluted in 50 mM HEPES pH 7.5, 150 mM NaCl, 2 mM MgCl2, 1 mM DTT, 0.05% Tween-20 and a serial dilution prepared (9 concentrations, 3-fold dilutions, 0.08-500 nM). […] The compound dilutions were then injected at 100 uL/min for 120 seconds contact time in sequence with increasing concentrations. Dissociation was monitored for 3600 seconds. 50 mM HEPES pH 7.5, 150 mM NaCl, 2 mM MgCl2, 1 mM DTT, 0.05% Tween-20, 1% DMSO was used as running buffer. The single-cycle kinetics data were fit to a 1:1 binding model to measure the association rate ka (1/Ms), the dissociation rate kd (1/s) and the affinity Kd (M).

SMILES	Kd [2] [µM]	Kd [3] [µM]	Kd [4] [µM]	IC50 [5] [µM]	Kd [6] [µM]	mTORC2 % inhibition at 1 uM [1]
COCCOCCOC1CC2CCC(C)C(O)(O2)C(=O)C(=O)N2CCCCC2C(=O)OC(C(C)CC2CCC(OCCCS(C)(=O)=O)C(OC)C2)CC(=O)C(C)C=C(C)C(O)C(OC)C(=O)C(C)CC(C)C=CC=CC=C1C (mixture of isomers) [Compound 65]	0.3 to 0.8	0.01 to 0.1	> 0.8	0.0001 to 0.0008	< 0.0003	A (A ≤20% inhibition at 1 micro Molar (uM))
COCCOCCOCCOC1CC2CCC(C)C(O)(O2)C(=O)C(=O)N2CCCCC2C(=O)OC(C(C)CC2CCC(OCCCS(C)(=O)=O)C(OC)C2)CC(=O)C(C)C=C(C)C(O)C(OC)C(=O)C(C)CC(C)C=CC=CC=C1C (mixture of isomers) [Compound 66]	> 0.8	0.01 to 0.1	> 0.8	0.0001 to 0.0008	0.0003 to 0.001	A (A ≤20% inhibition at 1 micro Molar (uM))
CO[C@@H]1C[C@H](C[C@@H](C)[C@@H]2CC(=O)[C@H](C)/C=C(\C)[C@@H](O)[C@@H](OC)C(=O)[C@H](C)C[C@H](C)/C=C/C=C/C=C(\C)[C@H](NS(=O)(=O)CC3CCOCC3)C[C@@H]3CC[C@@H](C)[C@@](O)(O3)C(=O)C(=O)N3CCCC[C@H]3C(=O)O2)CC[C@H]1O [Compound 5]	> 0.8	0.01 to 0.1	> 0.8	0.0001 to 0.0008	< 0.0003	A (A ≤20% inhibition at 1 micro Molar (uM))
CO[C@@H]1C[C@H](C[C@@H](C)[C@@H]2CC(=O)[C@H](C)/C=C(\C)[C@@H](O)[C@@H](OC)C(=O)[C@H](C)C[C@H](C)/C=C/C=C/C=C(\C)[C@@H](NS(=O)(=O)CC3CCOCC3)C[C@@H]3CC[C@@H](C)[C@@](O)(O3)C(=O)C(=O)N3CCCC[C@H]3C(=O)O2)CC[C@H]1O [Compound 6]	> 0.8	< 0.01	> 0.8	0.0001 to 0.0008	< 0.0003	A (A ≤20% inhibition at 1 micro Molar (uM))

Further lines, with some results ahead:

Kd [2] [µM]	Kd [3] [µM]	Kd [4] [µM]	IC50 [5] [µM]	Kd [6] [µM]	SMILES	mTORC2 % inhibition at 1 uM [1]
0.3 to 0.8	0.01 to 0.1	0.3 to 0.8	0.0001 to 0.0008	< 0.0003	COCCS(=O)(=O)NC1CC2CCC(C)C(O)(O2)C(=O)C(=O)N2CCCCC2C(=O)OC(C(C)CC2CCC(O)C(OC)C2)CC(=O)C(C)C=C(C)C(O)C(OC)C(=O)C(C)CC(C)C=CC=CC=C1C (mixture of isomers) [Compound 24]	A (A ≤20% inhibition at 1 micro Molar (uM))
< 0.3	0.01 to 0.1	0.3 to 0.8	< 0.0001	< 0.0003	COCCOCCS(=O)(=O)NC1CC2CCC(C)C(O)(O2)C(=O)C(=O)N2CCCCC2C(=O)OC(C(C)CC2CCC(OCCCO)C(OC)C2)CC(=O)C(C)C=C(C)C(O)C(OC)C(=O)C(C)CC(C)C=CC=CC=C1C (stereo not drawn) [Compound 2]	A (A ≤20% inhibition at 1 micro Molar (uM))
> 0.8	> 0.1	> 0.8	> 0.0008	0.0003 to 0.001	COCCOCCS(=O)(=O)NC1CC2CCC(C)C(O)(O2)C(=O)C(=O)N2CCCCC2C(=O)OC(C(C)CC2CCC(OCCCO)C(OC)C2)CC(=O)C(C)C=C(C)C(O)C(OC)C(=O)C(C)CC(C)C=CC=CC=C1C (stereo not drawn) [Compound 3]	A (A ≤20% inhibition at 1 micro Molar (uM))
0.3 to 0.8	0.01 to 0.1	0.3 to 0.8	0.0001 to 0.0008	< 0.0003	COCCOCCS(=O)(=O)N[C@@H]1C[C@@H]2CC[C@@H](C)[C@@](O)(O2)C(=O)C(=O)N2CCCC[C@H]2C(=O)O[C@H]([C@H](C)C[C@@H]2CC[C@@H](O)[C@H](OC)C2)CC(=O)[C@H](C)/C=C(\C)[C@@H](O)[C@@H](OC)C(=O)[C@H](C)C[C@H](C)/C=C/C=C/C=C/1C [Compound 8]	B (B>20% and less than 40% inhibition at 1 uM)
